Earlier results as cited in patent US6635803B1, “Method to improve drought tolerance in plants” (Regents of the University of California, priority 1999, dated 2003).

Assays:
K+in channel = conditions: 10 mM
[1] = system: K+in channels in guard cells; conditions: cytosolic second messengers

[Ba+2] [Ba^2+]
block of K+in channel currents (K+in channel): 90%
final stomatal apertures (stomata): does not affect

[Ca+2] [Ca^2+]
effect on K+in channels [1]: inhibit

Nc1nc2c(ncn2[C@@H]2O[C@H](COP(=O)(O)OP(=O)(O)OP(O)(O)=S)[C@@H](O)[C@H]2O)c(=O)[nH]1 [GTPγS]
effect on K+in channels [1]: inhibit

O=P(O)(O)O[C@@H]1[C@H](O)[C@H](O)[C@@H](OP(=O)(O)O)[C@H](OP(=O)(O)O)[C@H]1O [inositol-1,4,5-triphosphate]
effect on K+in channels [1]: inhibit
